Experimental data reported in patent US20240148744A1 (Celgene Corporation, priority 2021, published 2024).

Test system: Onchocerca gutturosa adult male worms
Experiment: Onchocerca gutturosa in vitro screening model: adult worm motility score and MTT/formazan viability
Format: cell-based
Conditions: read-out: O. gutt Activity class

Structure (SMILES)	IC50
COc1cnc(S(=O)(=O)Nc2c(Cl)ccc3cccnc23)cn1 [Compound 78, N-(7-chloro-quinolin-8-yl)-5-meth-oxypyrazine-2-sulfonamide]	500 to 5000 nM
Cc1cc(NS(=O)(=O)c2nccn2C)c2ncccc2c1 [Compound 129, 1-methyl-N-(6-methyl-quinolin-8-yl)-1H-imidazole-2-sulfonamide]	< 200 nM
O=S(=O)(Nc1cccc2cncnc12)c1ccccn1 [Compound 202, N-(quinazolin-8-yl)pyridine-2-sulfonamide]	500 to 5000 nM
O=S(=O)(Nc1cccc2cccnc12)c1ncccn1 [Compound 200, N-(quinolin-8-yl)pyrimidine-2-sulfonamide]	< 200 nM
Cc1ccc(S(=O)(=O)Nc2cc(C)cc3cccnc23)cc1 [Compound 93, 4-methyl-N-(6-methyl-quinolin-8-yl)benzene-sulfonamide]	200 to 500 nM
Cc1cccnc1S(=O)(=O)Nc1cccc2c(OC(C)C)ccnc12 [Compound 19, N-(4-iso-propoxyquin-olin-8-yl)-3-methylpyr-idine-2-sulfonamide]	500 to 5000 nM
Cn1ccnc1S(=O)(=O)Nc1cccc2cccnc12 [Compound 251, 1-methyl-N-(quinolin-8-yl)-1H-imidazole-2-sulfonamide]	< 200 nM
Cn1ccnc1S(=O)(=O)Nc1ccc(F)c2cccnc12 [Compound 133, N-(5-fluoro-quinolin-8-yl)-1-methyl-1H-imidazole-2-sulfonamide]	< 200 nM
Cc1cccnc1S(=O)(=O)Nc1cccc2ncc(N3CCC3)cc12 [Compound 20, N-(3-(azet-idin-1-yl)-quinolin-5-yl)-3-meth-ylpyridine-2-sulfonamide]	200 to 500 nM
O=S(=O)(Nc1cccc2cccnc12)c1ccc(O)cn1 [Compound 218, 5-hydroxy-N-(quinolin-8-yl)pyridine-2-sulfonamide]	500 to 5000 nM
Cc1ccc(S(=O)(=O)Nc2cccc3cc(C)cnc23)cc1 [Compound 96, 4-methyl-N-(3-methyl-quinolin-8-yl)benzene-sulfonamide]	< 200 nM
O=S(=O)(Nc1cccc2cccnc12)c1ccc2ccccc2n1 [Compound 239, N-(quinolin-8-yl)quinoline-2-sulfonamide]	< 200 nM
CN(c1cccc2cccnc12)S(=O)(=O)c1ccccn1 [Compound 256, N-methyl-N-(quinolin-8-yl)pyridine-2-sulfonamide]	500 to 5000 nM
O=S(=O)(Nc1cccc2cccnc12)c1ccc(-c2cnco2)nc1 [Compound 172, 6-(oxazol-5-yl)-N-(quinolin-8-yl)pyridine-3-sulfonamide]	500 to 5000 nM
Cn1nccc1S(=O)(=O)Nc1cccc2cccnc12 [Compound 252, 1-methyl-N-(quinolin-8-yl)-1H-pyrazole-5-sulfonamide]	500 to 5000 nM
Cc1cnc(S(=O)(=O)Nc2cccc3cccnc23)nc1 [Compound 198, 5-methyl-N-(quinolin-8-yl)pyrimidine-2-sulfonamide]	200 to 500 nM
O=S(=O)(Nc1cccc2cccnc12)c1ccc(Cl)cc1 [Compound 285, 4-chloro-N-(quinolin-8-yl)benzene-sulfonamide]	< 200 nM
CN(C)c1cccnc1S(=O)(=O)Nc1cccc2c1CN(C1CC1)C2 [Compound 47, N-(2-cyclo-propyliso-indolin-4-yl)-3-(dimethyl-amino)pyr-idine-2-sulfonamide]	500 to 5000 nM
Cc1ccc(S(=O)(=O)Nc2cccc3cccnc23)cc1C [Compound 273, 3,4-dimethyl-N-(quinolin-8-yl)benzenesulfon-amide]	< 200 nM
Cn1cc(S(=O)(=O)Nc2ccc(F)c3cccnc23)cn1 [Compound 59, N-(5-fluoro-quinolin-8-yl)-1-meth-yl-1H-pyr-azole-4-sulfonamide]	500 to 5000 nM
COc1ccc(S(=O)(=O)Nc2cccc3cccnc23)nc1 [Compound 235, 5-methoxy-N-(quinolin-8-yl)pyridine-2-sulfonamide]	< 200 nM
CN(C)c1cnc(S(=O)(=O)Nc2c(Cl)ccc3cccnc23)cn1 [Compound 49, N-(7-chloro-quinolin-8-yl)-5-(dimeth-ylamino)pyr-azine-2-sulfonamide]	500 to 5000 nM
O=S(=O)(Nc1cccc2cccnc12)c1c[nH]c2ncccc12 [Compound 204, N-(quinolin-8-yl)-1H-pyrrolo[2,3-b]pyridine-3-sulfonamide]	500 to 5000 nM
CCn1ccnc1S(=O)(=O)Nc1cccc2cccnc12 [Compound 240, 1-ethyl-N-(quinolin-8-yl)-1H-imidazole-2-sulfonamide]	< 200 nM
N#Cc1ccccc1S(=O)(=O)Nc1cccc2cccnc12 [Compound 249, 2-cyano-N-(quinolin-8-yl)benzene-sulfonamide]	200 to 500 nM
O=S(=O)(Nc1cccc2cccnc12)c1cccc(F)c1 [Compound 283, 3-fluoro-N-(quinolin-8-yl)benzene-sulfonamide]	200 to 500 nM
O=S(=O)(Nc1ccc(N2CCOCC2)c2cccnc12)c1cn[nH]c1 [Compound 62, N-(5-morph-olinoquin-olin-8-yl)-1H-pyrazole-4-sulfonamide]	500 to 5000 nM

Structure (SMILES)	IC50
O=S(=O)(Nc1cccc2cccnc12)c1cccc(-c2ccccc2)n1 [Compound 161, 6-phenyl-N-(quinolin-8-yl)pyridine-2-sulfonamide]	500 to 5000 nM
COc1ccc2cccnc2c1NS(=O)(=O)c1ncccc1C1CC1 [Compound 141, 3-cyclopropyl-N-(7-methoxy-quinolin-8-yl)-pyridine-2-sulfonamide]	< 200 nM
O=S(=O)(Nc1cccc2cccnc12)c1ccc(Cl)cn1 [Compound 259, 5-chloro-N-(quinolin-8-yl)pyridine-2-sulfonamide]	500 to 5000 nM
NC(=O)c1cccc(S(=O)(=O)Nc2ccc(N3CCOCC3)c3cccnc23)c1 [Compound 92, 3-(N-(5-morpholino-quin-olin-8-yl)sulfamoyl)-benzamide]	500 to 5000 nM
Cc1ccnc(S(=O)(=O)Nc2cccc3cccnc23)c1 [Compound 234, 4-methyl-N-(quinolin-8-yl)pyridine-2-sulfonamide]	< 200 nM
CN1CCC(S(=O)(=O)Nc2cccc3cccnc23)CC1 [Compound 216, 1-methyl-N-(quinolin-8-yl)piperidine-4-sulfonamide]	500 to 5000 nM
Cc1ccc(S(=O)(=O)Nc2ccc(N3CCC(O)(c4ccccc4)CC3)c3cccnc23)cc1 [Compound 95, N-(5-(4-hydroxy-4-phenylpiper-idin-1-yl)-quinolin-8-yl)-4-methyl-benzene-sulfonamide]	500 to 5000 nM
COc1cc(OC)cc(S(=O)(=O)Nc2cc(F)cc3cccnc23)c1 [Compound 128, N-(6-fluoro-quinolin-8-yl)-3,5-dimethoxy-benzenesulfon-amide]	< 200 nM
O=S(=O)(Nc1cccc2cccnc12)c1ncc[nH]1 [Compound 243, N-(quinolin-8-yl)-1H-imidazole-2-sulfonamide]	500 to 5000 nM
Cc1cccnc1S(=O)(=O)Nc1cccc2ccc(-c3ccccc3)nc12 [Compound 22, 3-methyl-N-(2-phenyl-quinolin-8-yl)pyridine-2-sulfonamide]	500 to 5000 nM
Cc1cccnc1S(=O)(=O)Nc1cccc2ncc(N3CCOCC3)cc12 [Compound 24, 3-methyl-N-(3-morpho-linoquinolin-5-yl)pyridine-2-sulfonamide]	500 to 5000 nM
O=S(=O)(Nc1ccnc2cccnc12)c1cc(C2CC2)ccn1 [Compound 195]	< 200 nM
O=S(=O)(Nc1cccc2cccnc12)c1nnc2ccccn12 [Compound 201, N-(quinolin-8-yl)-[1,2,4]triazolo [4,3-a]pyridine-3-sulfonamide]	500 to 5000 nM
Cc1cc(C)cc(S(=O)(=O)Nc2cccc3cccnc23)c1 [Compound 254, 3,5-dimethyl-N-(quinolin-8-yl)benzene-sulfonamide]	< 200 nM
O=S(=O)(Nc1ccnc2cccnc12)c1ccccn1 [Compound 203, N-(1,5-naphthyridin-4-yl)pyridine-2-sulfonamide]	500 to 5000 nM
O=S(=O)(Nc1cc(-c2ccccc2)cc2cccnc12)c1ccccn1 [Compound 97, N-(6-phenyl-quinolin-8-yl)pyridine-2-sulfonamide]	500 to 5000 nM
CN1CCc2cccc(NS(=O)(=O)c3ncccc3C3CC3)c2C1 [Compound 37, 3-cyclo-propyl-N-(2-methyl-1,2,3,4-tetra-hydroisoquin-olin-8-yl)pyr-idine-2-sulfonamide]	200 to 500 nM
Cc1cccnc1S(=O)(=O)Nc1cccc2c1N(C1CC1)CCC2 [Compound 38, N-(1-cyclo-propyl-1,2,3,4-tetra-hydroquin-olin-8-yl)-3-methylpyr-idine-2-sulfonamide]	500 to 5000 nM
CCn1ccnc1S(=O)(=O)Nc1ccc(OC)c2cccnc12 [Compound 57, 1-ethyl-N-(5-methoxyquin-olin-8-yl)-1H-imidazole-2-sulfonamide]	500 to 5000 nM
Cc1cccnc1S(=O)(=O)Nc1cccc2c1N(C)CC2 [Compound 44, 3-methyl-N-(1-methyl-indolin-7-yl)-pyridine-2-sulfonamide]	500 to 5000 nM
O=S(=O)(Nc1cccc2cccnc12)c1nccc2ncccc12 [Compound 229, N-(quinolin-8-yl)-1,6-naphthyridine-5-sulfonamide]	< 200 nM
O=S(=O)(Nc1c(Cl)ccc2cccnc12)c1ncccc1C1CC1 [Compound 69, N-(7-chloro-quinolin-8-yl)-3-cyclo-propylpyr-idine-2-sulfonamide]	< 200 nM
Cc1ccc(S(=O)(=O)Nc2cccc3cccnc23)cc1 [Compound 284, 4-methyl-N-(quinolin-8-yl)benzene-sulfonamide]	< 200 nM
Cc1cccnc1S(=O)(=O)Nc1cccc2c1CN(C1CC1)C2 [Compound 41, N-(2-cyclo-propyliso-indolin-4-yl)-3-methylpyr-idine-2-sulfonamide]	500 to 5000 nM
COc1nccnc1S(=O)(=O)Nc1c(Cl)ccc2cccnc12 [Compound 101, N-(7-chloro-quinolin-8-yl)-3-methoxypyr-azine-2-sulfon-amide]	500 to 5000 nM
O=S(=O)(Nc1cccc2cccnc12)c1cccnc1 [Compound 277, N-(quinolin-8-yl)pyridine-3-sulfonamide]	500 to 5000 nM
Cn1ccnc1S(=O)(=O)Nc1cc(F)cc2cccnc12 [Compound 134, N-(6-fluoro-quinolin-8-yl)-1-methyl-1H-imidazole-2-sulfonamide]	< 200 nM
